The target of one test is T1, Rat FAAH (Rattus norvegicus, UniProt P97612).
T1 construct: expressed in transfected cells
T1 sequence (P97612 1-579): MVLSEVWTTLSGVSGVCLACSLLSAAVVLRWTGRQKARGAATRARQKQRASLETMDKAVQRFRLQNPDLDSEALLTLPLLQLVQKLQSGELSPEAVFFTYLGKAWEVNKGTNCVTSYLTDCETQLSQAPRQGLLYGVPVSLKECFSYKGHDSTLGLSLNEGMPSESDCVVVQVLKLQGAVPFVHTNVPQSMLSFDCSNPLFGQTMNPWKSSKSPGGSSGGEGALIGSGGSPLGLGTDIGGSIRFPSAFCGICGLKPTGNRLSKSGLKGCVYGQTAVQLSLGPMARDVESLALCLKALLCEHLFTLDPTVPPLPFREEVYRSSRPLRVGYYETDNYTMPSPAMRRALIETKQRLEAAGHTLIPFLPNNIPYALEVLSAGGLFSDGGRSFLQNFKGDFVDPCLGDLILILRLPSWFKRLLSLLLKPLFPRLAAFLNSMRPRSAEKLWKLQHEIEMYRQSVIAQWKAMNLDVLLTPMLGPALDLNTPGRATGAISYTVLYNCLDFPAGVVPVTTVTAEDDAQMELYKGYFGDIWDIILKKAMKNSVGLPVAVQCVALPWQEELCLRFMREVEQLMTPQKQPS
Description: Assay Method 2: FAAH assay, hydrolysis of 3H-anandamide by cell homogenate. The class given is biochemical. The settings on record: T84 or transfected SK-N-MC cell homogenate, 3H-AEA 80 nM, rt 1 h, average of results obtained. As to the method:
A. Transfection of Cells with Rat FAAH
(§1) A 10-cm tissue culture dish with a confluent monolayer of SK-N-MC cells was split 2 days (d) prior to transfection. Using sterile technique, the media was removed and the cells were detached from the dish by the addition of trypsin. One fifth of the cells were then placed onto a new 10-cm dish. Cells were grown in a 37° C. incubator with 5% CO2 in Minimal Essential Media Eagle with 10% Fetal Bovine Serum. After 2 d, cells were approximately 80% confluent. These cells were removed from the dish with trypsin and pelleted in a clinical centrifuge. The pellet was re-suspended in 400 μL complete media and transferred to an electroporation cuvette with a 0.4 cm gap between the electrodes. Supercoiled rat FAAH cDNA (1 μg) was added to the cells and mixed. The voltage for the electroporation was set at 0.25 kV, and the capacitance was set at 960 After electroporation, the cells were diluted into complete media (10 mL) and plated onto four 10-cm dishes. Because of the variability in the efficiency of electroporation, four different concentrations of cells were plated. The ratios used were 1:20, 1:10, and 1:5, with the remainder of the cells being added to the fourth dish. The cells were allowed to recover for 24 h before adding the selection media (complete media with 600 μg/mL G418). After 10 d, dishes were analyzed for surviving colonies of cells. Dishes with well-isolated colonies were used. Cells from individual colonies were isolated and tested.
(§2) T84 frozen cell pellets or transfected SK-N-MC cells (contents of 1×15 cm culture dishes) were homogenized in 50 mL of FAAH assay buffer (125 mM Tris, 1 mM EDTA, 0.2% Glycerol, 0.02% Triton X-100, 0.4 mM Hepes, pH 9). The assay mixture consisted of 50 μL of the cell homogenate, 10 μL of the test compound, and 40 μL of anandamide [1-^3H-ethanolamine] (^3H-AEA, Perkin-Elmer, 10.3 Ci/mmol), which was added last, for a final tracer concentration of 80 nM. The reaction mixture was incubated at rt for 1 h. During the incubation, 96-well Multiscreen filter plates (catalog number MAFCNOB50; Millipore, Bedford, Mass., USA) were loaded with 25 of activated charcoal (Multiscreen column loader, catalog number MACL09625, Millipore) and washed once with 100 μL of MeOH. Also during the incubation, 96-well DYNEX MicroLite plates (catalog number NL510410) were loaded with 100 μL of MicroScint40 (catalog number 6013641, Packard Bioscience, Meriden, Conn., USA). After the 1 h incubation, 60 μL of the reaction mixture were transferred to the charcoal plates, which were then assembled on top of the DYNEX plates using Centrifuge Alignment Frames (catalog number MACF09604, Millipore). The unbound labeled ethanolamine was centrifuged through to the bottom plate (5 min at 2000 rpm), which was preloaded with the scintillant, as described above. The plates were sealed and left at rt for 1 h before counting on a Hewlett Packard TopCount.
(§3) Results for compounds tested in these assays are summarized in Table 1, as an average of results obtained. Compounds were tested in free base, hydrochloride salt, and/or trifluoroacetic acid salt forms. Where activity is shown as greater than (>) a particular value, the value is the solubility limit of the compound in the assay medium or the highest concentration tested in the assay.

The next test concerns the target T2, Human FAAH (Homo sapiens, UniProt O00519).
T2 construct: expressed in transfected cells; alternatively T84 frozen cell pellets
T2 sequence (O00519 1-579): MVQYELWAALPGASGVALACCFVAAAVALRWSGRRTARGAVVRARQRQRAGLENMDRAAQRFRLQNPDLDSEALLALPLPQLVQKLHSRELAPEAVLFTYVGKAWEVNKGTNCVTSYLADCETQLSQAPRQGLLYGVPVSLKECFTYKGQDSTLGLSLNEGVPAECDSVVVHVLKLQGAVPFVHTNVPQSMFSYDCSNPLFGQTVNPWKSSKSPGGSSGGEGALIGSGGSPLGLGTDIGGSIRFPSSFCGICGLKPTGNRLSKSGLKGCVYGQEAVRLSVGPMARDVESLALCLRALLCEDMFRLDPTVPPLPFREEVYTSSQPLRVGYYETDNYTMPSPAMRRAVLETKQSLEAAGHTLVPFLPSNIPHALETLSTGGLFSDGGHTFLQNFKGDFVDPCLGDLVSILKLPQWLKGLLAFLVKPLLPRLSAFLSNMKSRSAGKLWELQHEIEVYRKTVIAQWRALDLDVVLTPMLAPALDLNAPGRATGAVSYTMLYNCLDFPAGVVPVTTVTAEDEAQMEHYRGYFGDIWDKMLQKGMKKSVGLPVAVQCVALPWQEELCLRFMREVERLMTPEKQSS
Description: Assay Method 1: FAAH assay, hydrolysis of 3H-anandamide by cell homogenate. The class given is biochemical. The settings on record: T84 or transfected SK-N-MC cell homogenate, 3H-AEA 80 nM, rt 1 h, average of results obtained. As to the method:
A. Transfection of Cells with Human FAAH
as §1, with “Supercoiled human” for “Supercoiled rat”, “960 μF.” for “960”
as §2, with “with 25 μL of activated” for “with 25 of activated”, “plates using” for “plates using Centrifuge Alignment Frames (catalog number MACF09604, Millipore). The unbound labeled ethanolamine was centrifuged through to the bottom plate (5 min at 2000 rpm), which was preloaded with the scintillant, as described above. The plates were sealed and left at rt for 1 h before counting on a Hewlett Packard TopCount.”
Centrifuge Alignment Frames (catalog number MACF09604, Millipore). The unbound labeled ethanolamine was centrifuged through to the bottom plate (5 min at 2000 rpm), which was preloaded with the scintillant, as described above. The plates were sealed and left at rt for 1 h before counting on a Hewlett Packard TopCount.
as §3

Regarding `O=C(Nc1cccnc1)N1CCCC(Cc2cccc(Oc3ccc(Cl)cc3)c2)C1` (single isomer, unassigned; (-)) [Example 14, (−)-3-[3-(4-Chloro-phenoxy)-benzyl]-piperidine-1-carboxylic acid pyridin-3-ylamide], the IC50 at Rat FAAH came to 27 nM; against Human FAAH, 73 nM.
For the compound `O=C(Nc1cccnc1)N1CCCC(Cc2cccc(Oc3ccc(F)cc3)c2)C1` (stereo not shown) [Example 10, 3-[3-(4-Fluorophenoxy)benzyl]-N-pyridin-3-ylpiperidine-1-carboxamide], the IC50 against Rat FAAH was 19 nM; against Human FAAH, 18 nM.
The matching figures for `O=C(Nc1cnc2cccnn12)N1CCCC(Cc2cccc(Oc3ccc(F)cc3)c2)C1` (stereo not shown) [Example 12, 3-[3-(4-Fluoro-phenoxy)-benzyl]-piperidine-1-carboxylic acid imidazo[1,2-b]pyridazin-3-ylamide]: 7 nM and 56 nM.
In the case of `O=C(Nc1cnccc1Cl)N1CCCC(Cc2cccc(Oc3ccc(F)cc3)c2)C1` (stereo not shown) [Example 11, 3-[3-(4-Fluoro-phenoxy)-benzyl]-piperidine-1-carboxylic acid (4-chloro-pyridin-3-yl)-amide], the IC50 stood at 8 nM on Rat FAAH and 87 nM against Human FAAH.
The matching figures for `O=C(Nc1ccon1)N1CCCC(Cc2cccc(C(F)(F)F)c2)C1` (stereo not shown) [Example 9, N-Isoxazol-3-yl-3-{[3-(trifluoromethyl)phenyl]methyl}piperidine-1-carboxamide]: 9000 nM and 7000 nM.
